ChEMBL document CHEMBL4308852, “GNE-371, a Potent and Selective Chemical Probe for the Second Bromodomains of Human Transcription-Initiation-Factor TFIID Subunit 1 and Transcription-Initiation-Factor TFIID Subunit 1-like” (J Med Chem, 2018)
Values after ≈ are worked out from the molar mass of the structure shown. Active and inactive are the calls of the source. The calls are words filed in the database; no cut-off is given here.

Legend:
[1] = molecular target: T1, Chromatin remodeling regulator CECR2 (Homo sapiens, UniProt Q9BXF3); assay: Inhibition of recombinant His-tagged CECR2 (unknown origin) after 10 mins by TR-FRET assay
[2] = molecular target: T2, Transcription initiation factor TFIID subunit 1 (Homo sapiens, UniProt P21675); assay: Inhibition of recombinant His-tagged TAF1 bromodomain 2 (unknown origin) after 10 mins by TR-FRET assay
[3] = molecular target: T3, Bromodomain-containing protein 4 (Homo sapiens, UniProt O60885); assay: Inhibition of recombinant His-tagged BRD4 bromodomain 2 (unknown origin) after 10 mins by TR-FRET assay
[4] = molecular target: T3, Bromodomain-containing protein 4; assay: Inhibition of recombinant His-tagged BRD4 bromodomain 1 (unknown origin) after 10 mins by TR-FRET assay
[5] = molecular target: T2, Transcription initiation factor TFIID subunit 1; assay: Inhibition of recombinant His-tagged TAF1 bromodomain 1 (unknown origin) after 10 mins by TR-FRET assay
[6] = molecular target: CREB-binding protein (Homo sapiens, UniProt Q92793); assay: Inhibition of recombinant His-tagged CBP (unknown origin) after 10 mins by TR-FRET assay
[7] = molecular target: T3, Bromodomain-containing protein 4; assay: Binding affinity to recombinant human full length DNA-tagged BRD4 short isoform expressed in bacterial expression system by bromoscan assay
[8] = molecular target: T3, Bromodomain-containing protein 4; conditions: 20 uM
[9] = Kinetic solubility of the compound; assay type: physicochemical; conditions: read-out: Kinetic_solubility
[10] = molecular target: Transcription initiation factor TFIID subunit 1-like (Homo sapiens, UniProt Q8IZX4); assay: Binding affinity to recombinant human full length DNA-tagged TAF1L bromodomain 2 (1523 to 1654 residues) expressed in bacterial expression system by bromoscan assay
[11] = molecular target: T1, Chromatin remodeling regulator CECR2
[12] = test system: NCI-H23; assay: Synergistic cytotoxicity against human H23 cells assessed as reduction in cell viability at 100 nM after 48 hrs in presence of BRD4 inhibitor JQ1 by celltiter-glo assay; assay type: functional, cell-based

T2 sequence (P21675 whole entry): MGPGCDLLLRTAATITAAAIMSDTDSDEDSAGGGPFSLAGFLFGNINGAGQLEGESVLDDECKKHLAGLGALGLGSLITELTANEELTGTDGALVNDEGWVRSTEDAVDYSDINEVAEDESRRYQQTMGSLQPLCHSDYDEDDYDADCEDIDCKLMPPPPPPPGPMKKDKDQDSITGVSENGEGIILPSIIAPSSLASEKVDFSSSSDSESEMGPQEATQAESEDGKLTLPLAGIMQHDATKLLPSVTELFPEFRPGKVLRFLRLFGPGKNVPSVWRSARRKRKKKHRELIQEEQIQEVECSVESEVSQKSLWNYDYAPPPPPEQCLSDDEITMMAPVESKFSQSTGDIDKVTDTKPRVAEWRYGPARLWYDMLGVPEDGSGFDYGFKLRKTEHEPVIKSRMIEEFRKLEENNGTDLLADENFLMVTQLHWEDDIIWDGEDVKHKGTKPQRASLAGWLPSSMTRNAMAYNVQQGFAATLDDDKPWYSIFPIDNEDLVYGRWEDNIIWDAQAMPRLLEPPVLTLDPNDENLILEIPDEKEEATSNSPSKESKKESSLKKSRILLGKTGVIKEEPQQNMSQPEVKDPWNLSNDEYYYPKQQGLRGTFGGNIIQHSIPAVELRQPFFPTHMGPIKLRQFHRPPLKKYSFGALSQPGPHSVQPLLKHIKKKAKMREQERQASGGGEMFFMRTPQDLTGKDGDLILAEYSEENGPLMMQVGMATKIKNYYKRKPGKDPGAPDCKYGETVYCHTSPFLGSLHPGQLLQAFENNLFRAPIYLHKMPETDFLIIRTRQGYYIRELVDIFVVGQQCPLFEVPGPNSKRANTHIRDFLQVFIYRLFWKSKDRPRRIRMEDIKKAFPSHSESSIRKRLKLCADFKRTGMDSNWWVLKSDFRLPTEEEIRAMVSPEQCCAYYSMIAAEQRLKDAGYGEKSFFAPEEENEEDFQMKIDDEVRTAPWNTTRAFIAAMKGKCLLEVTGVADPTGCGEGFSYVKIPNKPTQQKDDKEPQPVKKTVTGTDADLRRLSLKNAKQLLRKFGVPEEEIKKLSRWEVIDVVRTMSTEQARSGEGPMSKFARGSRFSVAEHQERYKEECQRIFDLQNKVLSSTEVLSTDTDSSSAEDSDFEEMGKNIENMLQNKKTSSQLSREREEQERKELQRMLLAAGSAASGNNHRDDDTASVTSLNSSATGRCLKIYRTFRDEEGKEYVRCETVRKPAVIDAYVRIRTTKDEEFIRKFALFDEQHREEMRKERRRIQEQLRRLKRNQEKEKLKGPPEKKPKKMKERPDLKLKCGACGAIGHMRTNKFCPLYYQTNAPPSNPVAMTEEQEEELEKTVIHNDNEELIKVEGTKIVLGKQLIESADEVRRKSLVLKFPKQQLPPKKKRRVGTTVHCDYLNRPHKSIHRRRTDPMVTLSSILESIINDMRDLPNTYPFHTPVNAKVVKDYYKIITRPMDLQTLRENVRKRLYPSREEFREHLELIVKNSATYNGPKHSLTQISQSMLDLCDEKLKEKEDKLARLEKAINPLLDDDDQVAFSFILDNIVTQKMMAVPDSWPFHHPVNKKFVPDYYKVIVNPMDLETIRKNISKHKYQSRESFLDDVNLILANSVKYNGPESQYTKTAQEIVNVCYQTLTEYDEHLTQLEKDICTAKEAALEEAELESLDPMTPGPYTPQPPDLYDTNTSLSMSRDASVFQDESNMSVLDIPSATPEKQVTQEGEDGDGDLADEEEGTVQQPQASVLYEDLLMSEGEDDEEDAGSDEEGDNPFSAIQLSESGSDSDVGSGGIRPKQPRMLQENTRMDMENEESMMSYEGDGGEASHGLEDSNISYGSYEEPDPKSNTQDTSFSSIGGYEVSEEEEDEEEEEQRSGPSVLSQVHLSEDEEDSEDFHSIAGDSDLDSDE
T1 sequence (Q9BXF3 whole entry): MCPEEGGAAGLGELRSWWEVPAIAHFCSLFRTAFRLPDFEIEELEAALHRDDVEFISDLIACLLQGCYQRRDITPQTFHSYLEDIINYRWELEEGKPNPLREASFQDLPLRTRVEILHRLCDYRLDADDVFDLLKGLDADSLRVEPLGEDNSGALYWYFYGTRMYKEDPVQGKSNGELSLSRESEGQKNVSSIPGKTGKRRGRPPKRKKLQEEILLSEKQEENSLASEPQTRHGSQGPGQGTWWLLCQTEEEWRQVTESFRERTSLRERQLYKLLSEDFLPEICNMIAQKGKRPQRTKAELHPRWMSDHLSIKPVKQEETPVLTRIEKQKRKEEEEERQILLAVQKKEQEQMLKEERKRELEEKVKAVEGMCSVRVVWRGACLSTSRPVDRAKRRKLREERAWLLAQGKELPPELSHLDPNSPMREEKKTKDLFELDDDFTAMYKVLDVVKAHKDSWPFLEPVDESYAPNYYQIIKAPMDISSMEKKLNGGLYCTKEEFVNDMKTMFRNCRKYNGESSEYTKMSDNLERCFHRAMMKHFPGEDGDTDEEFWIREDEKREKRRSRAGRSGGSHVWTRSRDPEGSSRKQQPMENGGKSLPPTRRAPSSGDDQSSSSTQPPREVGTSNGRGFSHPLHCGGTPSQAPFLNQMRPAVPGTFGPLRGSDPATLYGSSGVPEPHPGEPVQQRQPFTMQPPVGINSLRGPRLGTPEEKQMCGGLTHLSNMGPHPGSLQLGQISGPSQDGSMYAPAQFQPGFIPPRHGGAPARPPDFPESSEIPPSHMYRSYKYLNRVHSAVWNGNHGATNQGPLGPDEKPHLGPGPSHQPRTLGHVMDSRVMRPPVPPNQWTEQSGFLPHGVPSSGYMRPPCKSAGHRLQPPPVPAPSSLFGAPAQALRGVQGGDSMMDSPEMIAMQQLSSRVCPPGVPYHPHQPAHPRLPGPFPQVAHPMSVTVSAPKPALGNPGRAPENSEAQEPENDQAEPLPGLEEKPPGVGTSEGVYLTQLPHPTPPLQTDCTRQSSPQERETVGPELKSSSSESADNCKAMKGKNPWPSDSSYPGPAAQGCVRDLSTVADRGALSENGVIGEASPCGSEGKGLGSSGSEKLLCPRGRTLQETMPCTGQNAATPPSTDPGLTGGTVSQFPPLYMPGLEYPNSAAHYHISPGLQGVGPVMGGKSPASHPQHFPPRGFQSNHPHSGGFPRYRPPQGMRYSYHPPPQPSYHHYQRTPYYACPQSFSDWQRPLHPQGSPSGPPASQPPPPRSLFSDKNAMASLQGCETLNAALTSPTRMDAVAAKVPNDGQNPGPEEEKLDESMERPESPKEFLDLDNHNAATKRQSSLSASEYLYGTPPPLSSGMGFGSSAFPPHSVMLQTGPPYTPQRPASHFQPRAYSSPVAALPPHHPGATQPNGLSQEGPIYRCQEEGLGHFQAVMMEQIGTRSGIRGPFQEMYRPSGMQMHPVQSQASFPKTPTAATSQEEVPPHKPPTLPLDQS

| Compound | IC50 [1] | IC50 [2] | IC50 [3] | IC50 [4] | IC50 [5] | also measured |
| --- | --- | --- | --- | --- | --- | --- |
| C=CCCn1cc(-c2cnc(OC)c(C(=O)N3CCOCC3)c2)c2cc[nH]c2c1=O | 1 µM | 0.007 µM | 9.6 µM | 8.6 µM | 6.9 µM |  |
| C=CCCn1cc(-c2cccc(C(=O)N(C)C3CCCCC3)c2)c2cc[nH]c2c1=O | 4 µM | 0.067 µM | 2.4 µM | 0.75 µM | 13 µM | IC50 [6]: > 20 µM |
| C=CCCn1cc(-c2cc(C(=O)N3CCOCC3)c3c(c2)ncn3C)c2cc[nH]c2c1=O | 0.23 µM |  | 4.4 µM | 3.6 µM |  |  |
| C=CCCn1cc(-c2cc(C(=O)N3CCOCC3)cc3c2ncn3C)c2cc[nH]c2c1=O | 1.2 µM |  | > 20 µM | > 20 µM |  | Kd [7]: 8.9 µM; inhibition [8]: inactive; solubility kinetic [9]: 121 µM (≈ 52.2 µg/mL); Kd [10]: 0.005 µM; Kd [11]: 1.2 µM; Activity [12]: Active |
| C=CCCn1cc(-c2cc(C(=O)N3CCOCC3)cc3[nH]cnc23)c2cc[nH]c2c1=O |  |  | > 20 µM | > 20 µM |  |  |
| C=CCCn1cc(-c2cnc(OCC)c(C(=O)N3CCOCC3)c2)c2cc[nH]c2c1=O | 0.59 µM | 0.004 µM | 7.6 µM | 6.3 µM | 5.3 µM |  |
| C=CCCn1cc(-c2cc(C(=O)N3CCOCC3)c3ncn(CC)c3c2)c2cc[nH]c2c1=O |  |  | 6.8 µM | 3.4 µM |  |  |
| C=CCCn1cc(-c2cc(C(=O)N3CCOCC3)c3nc[nH]c3c2)c2cc[nH]c2c1=O |  |  | 4.4 µM | 2.3 µM |  |  |
| C=CCCn1cc(-c2cc(F)c(F)c(C(=O)N3CCOCC3)c2)c2cc[nH]c2c1=O |  |  | 17 µM | 7.9 µM |  |  |
| C=CCCn1cc(-c2cc(C(=O)N3CCOCC3)c3c(c2)ncn3CC)c2cc[nH]c2c1=O | 2.6 µM | 0.016 µM | 1 µM | 2 µM | > 20 µM |  |
| C=CCCn1cc(-c2cc(C(=O)N3CCOCC3)c3ncn(C)c3c2)c2cc[nH]c2c1=O | 0.36 µM |  | 12 µM | 8.2 µM |  |  |
| C=CCCn1cc(-c2cc(OC(F)F)cc(C(=O)N3CCOCC3)c2)c2cc[nH]c2c1=O |  |  | 9 µM | 0.6 µM |  |  |
| C=CCCn1cc(-c2cc(C#N)cc(C(=O)N3CCOCC3)c2)c2cc[nH]c2c1=O |  |  | 5 µM | 1.8 µM |  |  |
| C=CCCn1cc(-c2cccc(C(=O)N3CCN(CCO)CC3)c2)c2cc[nH]c2c1=O | 1.1 µM | 0.083 µM | 5 µM | 3.2 µM | 14 µM | IC50 [6]: > 20 µM |
